Test results reported in patent US8759318B2, “Phosphoramidate derivatives of guanosine nucleoside compounds for treatment of viral infections” (Inhibitex, Inc., priority 2009, dated 2014).
Read-outs that look alike come from different tables or passages of the source.

Assays:
in vitro = conditions: human
[1] = system: HCV replicon (Genotype 1b); assay: Luciferase genotype 1b replicon potency assay; conditions: Hepatitis C virus
[2] = GETYPE1B, read-out: IC50 μM, HCV genotype 1b luciferase replicon, Renilla luciferase reporter

COc1nc(N)nc2c1ncn2C1O[C@H](COP(=O)(N[C@@H](CCSC)C(=O)O[C@@H](C)c2ccccc2)Oc2cccc3ccccc23)[C@@H](O)[C@@]1(C)O (stereo partly drawn) [Example 59, (2S)-((S)-1-phenylethyl) 2-((((2R,3R,4R)-5-(2-amino-6-methoxy-9H-purin-9-yl)-3,4-dihydroxy-4-methyltetrahydrofuran-2-yl)methoxy)(naphthalen-1-yloxy)phosphorylamino)-4-(methylthio)butanoate]
CC50 (in vitro): 30000 nM
IC50 [1, 2]: 0.32 µM

COc1nc(N)nc2c1ncn2C1O[C@H](COP(=O)(N[C@@H](CCSC)C(=O)OCC(C)(C)C)Oc2cccc3ccccc23)[C@@H](O)[C@@]1(C)O (some centres unmarked) [Example 60]
CC50 (in vitro): 28000 nM
IC50 [1, 2]: 0.06 µM

COc1nc(N)nc2c1ncn2[C@@H]1O[C@H](COP(=O)(N[C@@H](CC(C)C)C(=O)OCC(C)(C)C)Oc2cccc3ccccc23)[C@@H](O)[C@@]1(C)O (some centres unmarked) [Example 61]
CC50 (in vitro): 14000 nM
IC50 [1, 2]: 0.071 µM

CCC(C)[C@H](NP(=O)(OC[C@H]1OC(n2cnc3c(OC)nc(N)nc32)[C@](C)(O)[C@@H]1O)Oc1cccc2ccccc12)C(=O)OCC(C)(C)C (some centres unmarked) [Example 62]
CC50 (in vitro): 18000 nM
IC50 [1, 2]: 0.86 µM

COc1nc(N)nc2c1ncn2C1O[C@H](COP(=O)(N[C@H](C(=O)OCc2ccccc2)c2ccccc2)Oc2cccc3ccccc23)[C@@H](O)[C@@]1(C)O (some centres unmarked) [Example 63]
CC50 (in vitro): 50000 nM
IC50 [1, 2]: 0.028 µM

COC(=O)[C@@H](NP(=O)(OC[C@H]1OC(n2cnc3c(OC)nc(N)nc32)[C@](C)(O)[C@@H]1O)Oc1cccc2ccccc12)c1ccccc1 (some centres unmarked) [Example 64]
CC50 (in vitro): > 100000 nM
IC50 [1, 2]: 0.49 µM

COc1nc(N)nc2c1ncn2C1O[C@H](COP(=O)(N[C@H](C(=O)OCC(C)(C)C)c2ccccc2)Oc2cccc3ccccc23)[C@@H](O)[C@@]1(C)O (some centres unmarked) [Example 66]
CC50 (in vitro): 19000 nM
IC50 [1, 2]: 0.032 µM

COc1nc(N)nc2c1ncn2C1O[C@H](COP(=O)(N[C@H](C(=O)OC2CCCCC2)c2ccccc2)Oc2cccc3ccccc23)[C@@H](O)[C@@]1(C)O (stereo partly drawn) [Example 67, (2S)-cyclohexyl 2-((((2R,3R,4R)-5-(2-amino-6-methoxy-9H-purin-9-yl)-3,4-dihydroxy-4-methyltetrahydrofuran-2-yl)methoxy)(naphthalen-1-yloxy)phosphorylamino)-2-phenylacetate]
CC50 (in vitro): 22000 nM
IC50 [1, 2]: 0.054 µM

COc1nc(N)nc2c1ncn2C1O[C@H](COP(=O)(N[C@@H](C(=O)OCC(C)(C)C)c2ccccc2)Oc2cccc3ccccc23)[C@@H](O)[C@@]1(C)O (stereo partly drawn) [Example 70, (2R)-neopentyl 2-((((2R,3R,4R)-5-(2-amino-6-methoxy-9H-purin-9-yl)-3,4-dihydroxy-4-methyltetrahydrofuran-2-yl)methoxy)(naphthalen-1-yloxy)phosphorylamino)-2-phenylacetate]
CC50 (in vitro): 38000 nM
IC50 [1, 2]: 0.077 µM

COc1nc(N)nc2c1ncn2C1O[C@H](COP(=O)(N[C@@H](C(=O)OC2CCCCC2)c2ccccc2)Oc2cccc3ccccc23)[C@@H](O)[C@@]1(C)O (stereo partly drawn) [Example 71, (2R)-cyclohexyl 2-((((2R,3R,4R)-5-(2-amino-6-methoxy-9H-purin-9-yl)-3,4-dihydroxy-4-methyltetrahydrofuran-2-yl)methoxy)(naphthalen-1-yloxy)phosphorylamino)-2-phenylacetate]
CC50 (in vitro): 26000 nM
IC50 [1, 2]: 2.5 µM

CCOc1nc(N)nc2c1ncn2C1O[C@H](COP(=O)(N[C@@H](C)C(=O)OCc2ccccc2)Oc2cccc3ccccc23)[C@@H](O)[C@@]1(C)O (stereo partly drawn) [Example 73, (2S)-benzyl 2-((((2R,3R,4R)-5-(2-amino-6-ethoxy-9H-purin-9-yl)-3,4-dihydroxy-4-methyltetrahydrofuran-2-yl)methoxy)(naphthalen-1-yloxy)phosphorylamino)propanoate]
CC50 (in vitro): 11000 nM
IC50 [1, 2]: 0.037 µM

CCOc1nc(N)nc2c1ncn2C1O[C@H](COP(=O)(N[C@@H](C)C(=O)OCc2ccc(F)cc2F)Oc2cccc3ccccc23)[C@@H](O)[C@@]1(C)O (stereo partly drawn) [Example 74, (2S)-2,4-difluorobenzyl 2-((((2R,3R,4R)-5-(2-amino-6-ethoxy-9H-purin-9-yl)-3,4-dihydroxy-4-methyltetrahydrofuran-2-yl)methoxy)(naphthalen-1-yloxy)phosphorylamino)propanoate]
CC50 (in vitro): 17000 nM
IC50 [1, 2]: 0.034 µM

CCOc1nc(N)nc2c1ncn2C1O[C@H](COP(=O)(N[C@@H](C)C(=O)O[C@@H](C)c2ccccc2)Oc2cccc3ccccc23)[C@@H](O)[C@@]1(C)O (stereo partly drawn) [Example 75, (2S)-((S)-1-phenylethyl) 2-((((2R,3R,4R)-5-(2-amino-6-ethoxy-9H-purin-9-yl)-3,4-dihydroxy-4-methyltetrahydrofuran-2-yl)methoxy)(naphthalen-1-yloxy)phosphorylamino)propanoate]
CC50 (in vitro): 12000 nM
IC50 [1, 2]: 0.063 µM

CCOc1nc(N)nc2c1ncn2C1O[C@H](COP(=O)(N[C@@H](C)C(=O)OCC(C)(C)C)Oc2cccc3ccccc23)[C@@H](O)[C@@]1(C)O (some centres unmarked) [Example 76]
CC50 (in vitro): 10000 nM
IC50 [1, 2]: 0.01 µM

CCOc1nc(N)nc2c1ncn2C1O[C@H](COP(=O)(N[C@@H](C)C(=O)OC(C)C)Oc2cccc3ccccc23)[C@@H](O)[C@@]1(C)O (stereo partly drawn) [Example 77, (2S)-isopropyl 2-((((2R,3R,4R)-5-(2-amino-6-ethoxy-9H-purin-9-yl)-3,4-dihydroxy-4-methyltetrahydrofuran-2-yl)methoxy)(naphthalen-1-yloxy)phosphorylamino)propanoate]
CC50 (in vitro): 40000 nM
IC50 [1, 2]: 0.11 µM

CCOc1nc(N)nc2c1ncn2C1O[C@H](COP(=O)(N[C@@H](C)C(=O)OC2CCOCC2)Oc2cccc3ccccc23)[C@@H](O)[C@@]1(C)O (stereo partly drawn) [Example 78, (2S)-tetrahydro-2H-pyran-4-yl 2-((((2R,3R,4R)-5-(2-amino-6-ethoxy-9H-purin-9-yl)-3,4-dihydroxy-4-methyltetrahydrofuran-2-yl)methoxy)(naphthalen-1-yloxy)phosphorylamino)propanoate]
CC50 (in vitro): 47000 nM
IC50 [1, 2]: 0.059 µM

CCOc1nc(N)nc2c1ncn2C1O[C@H](COP(=O)(N[C@H](C(=O)OCC(C)(C)C)C(C)C)Oc2cccc3ccccc23)[C@@H](O)[C@@]1(C)O (stereo partly drawn) [Example 79, (2S)-neopentyl 2-((((2R,3R,4R)-5-(2-amino-6-ethoxy-9H-purin-9-yl)-3,4-dihydroxy-4-methyltetrahydrofuran-2-yl)methoxy)(naphthalen-1-yloxy)phosphorylamino)-3-methylbutanoate]
CC50 (in vitro): 24000 nM
IC50 [1, 2]: 0.22 µM

CNc1nc(N)nc2c1ncn2C1O[C@H](COP(=O)(N[C@@H](C)C(=O)OCC(C)(C)C)Oc2cccc3ccccc23)[C@@H](O)[C@@]1(C)O (stereo partly drawn) [Example 81, (2S)-neopentyl 2-((((2R,3R,4R)-5-(2-amino-6-(methylamino)-9H-purin-9-yl)-3,4-dihydroxy-4-methyltetrahydrofuran-2-yl)methoxy)(naphthalen-1-yloxy)phosphorylamino)propanoate]
CC50 (in vitro): 48000 nM
IC50 ([1]; read-out: IC50 μM): 0.033 µM

CNc1nc(N)nc2c1ncn2C1O[C@H](COP(=O)(N[C@@H](C)C(=O)O[C@@H](C)c2ccccc2)Oc2cccc3ccccc23)[C@@H](O)[C@@]1(C)O (stereo partly drawn) [Example 82, (2S)-((S)-1-phenylethyl) 2-((((2R,3R,4R)-5-(2-amino-6-(methylamino)-9H -purin-9-yl)-3,4-dihydroxy-4-methyltetrahydrofuran-2-yl)methoxy) (naphthalen-1-yloxy)phosphorylamino)propanoate]
CC50 (in vitro): 54000 nM
IC50 [1, 2]: 0.11 µM

CNc1nc(N)nc2c1ncn2[C@@H]1O[C@H](COP(=O)(N[C@@H](C)C(=O)OCC(C)(C)C)Oc2ccc3ncccc3c2)[C@@H](O)[C@@]1(C)O (stereo partly drawn) [Example 83, (2S)-neopentyl 2-((((2R,3R,4R,5R)-5-(2-amino-6-(methylamino)-9H-purin-9-yl)-3,4-dihydroxy-4-methyltetrahydrofuran-2-yl)methoxy)(quinolin-6-yloxy)phosphorylamino)propanoate]
CC50 (in vitro): > 100000 nM
IC50 [1, 2]: 0.36 µM

C[C@H](NP(=O)(OC[C@H]1OC(n2cnc3c(NCc4ccccc4)nc(N)nc32)[C@](C)(O)[C@@H]1O)Oc1cccc2ccccc12)C(=O)OCC(C)(C)C (some centres unmarked) [Example 85]
CC50 (in vitro): 15000 nM
IC50 [1, 2]: 0.58 µM

C[C@H](NP(=O)(OC[C@H]1OC(n2cnc3c(NCCc4ccccc4)nc(N)nc32)[C@](C)(O)[C@@H]1O)Oc1cccc2ccccc12)C(=O)OCC(C)(C)C (stereo partly drawn) [Example 87, (2S)-neopentyl 2-((((2R,3R,4R)-5-(2-amino-6-(phenethylamino)-9H-purin-9-yl)-3,4-dihydroxy-4-methyltetrahydrofuran-2-yl)methoxy)(naphthalen-1-yloxy)phosphorylamino)propanoate]
CC50 (in vitro): 42000 nM
IC50 [1, 2]: 0.27 µM

CSc1nc(N)nc2c1ncn2C1O[C@H](COP(=O)(N[C@@H](C)C(=O)O[C@@H](C)c2ccccc2)Oc2cccc3ccccc23)[C@@H](O)[C@@]1(C)O (stereo partly drawn) [Example 89, (2S)-((S)-1-phenylethyl) 2-((((2R,3R,4R)-5-(2-amino-6-(methylthio)-9H-purin-9-yl)-3,4-dihydroxy-4-methyltetrahydrofuran-2-yl)methoxy)(naphthalen-1-yloxy)phosphorylamino)propanoate]
CC50 (in vitro): 27000 nM
IC50 [1, 2]: 0.14 µM

CSc1nc(N)nc2c1ncn2C1O[C@H](COP(=O)(N[C@@H](C)C(=O)OCC(C)(C)C)Oc2cccc3ccccc23)[C@@H](O)[C@@]1(C)O (stereo partly drawn) [Example 90, (2S)-neopentyl 2-((((2R,3R,4R)-5-(2-amino-6-(methylthio)-9H-purin-9-yl)-3,4-dihydroxy-4-methyltetrahydrofuran-2-yl)methoxy)(naphthalen-1-yloxy)phosphorylamino)propanoate]
CC50 (in vitro): 41000 nM
IC50 [1, 2]: 0.033 µM

CSc1nc(N)nc2c1ncn2[C@@H]1O[C@H](COP(=O)(N[C@@H](C)C(=O)OCC(C)(C)C)Oc2ccc3ncccc3c2)[C@@H](O)[C@@]1(C)O (stereo partly drawn) [Example 91, (2S)-neopentyl 2-((((2R,3R,4R,5R)-5-(2-amino-6-(methylthio)-9H-purin-9-yl)-3,4-dihydroxy-4-methyltetrahydrofuran-2-yl)methoxy)(quinolin-6-yloxy)phosphorylamino)propanoate]
CC50 (in vitro): > 100000 nM
IC50 [1, 2]: 0.26 µM
